What follows are compounds tested against T1, human Kv7.2 (Homo sapiens, UniProt O43526) (assay: activation (potentiation) of Kv7.2 current, SyncroPatch 384 electrophysiology in CHO cells stably expressing human Kv7.2). Conditions: human Kv7.2 in CHO cells; in presence of 5.6 μM zinc pyrithione; % activation relative to 30 μM ML-213.
T1 construct: expressed in transfected cells
T1 sequence (O43526 whole entry): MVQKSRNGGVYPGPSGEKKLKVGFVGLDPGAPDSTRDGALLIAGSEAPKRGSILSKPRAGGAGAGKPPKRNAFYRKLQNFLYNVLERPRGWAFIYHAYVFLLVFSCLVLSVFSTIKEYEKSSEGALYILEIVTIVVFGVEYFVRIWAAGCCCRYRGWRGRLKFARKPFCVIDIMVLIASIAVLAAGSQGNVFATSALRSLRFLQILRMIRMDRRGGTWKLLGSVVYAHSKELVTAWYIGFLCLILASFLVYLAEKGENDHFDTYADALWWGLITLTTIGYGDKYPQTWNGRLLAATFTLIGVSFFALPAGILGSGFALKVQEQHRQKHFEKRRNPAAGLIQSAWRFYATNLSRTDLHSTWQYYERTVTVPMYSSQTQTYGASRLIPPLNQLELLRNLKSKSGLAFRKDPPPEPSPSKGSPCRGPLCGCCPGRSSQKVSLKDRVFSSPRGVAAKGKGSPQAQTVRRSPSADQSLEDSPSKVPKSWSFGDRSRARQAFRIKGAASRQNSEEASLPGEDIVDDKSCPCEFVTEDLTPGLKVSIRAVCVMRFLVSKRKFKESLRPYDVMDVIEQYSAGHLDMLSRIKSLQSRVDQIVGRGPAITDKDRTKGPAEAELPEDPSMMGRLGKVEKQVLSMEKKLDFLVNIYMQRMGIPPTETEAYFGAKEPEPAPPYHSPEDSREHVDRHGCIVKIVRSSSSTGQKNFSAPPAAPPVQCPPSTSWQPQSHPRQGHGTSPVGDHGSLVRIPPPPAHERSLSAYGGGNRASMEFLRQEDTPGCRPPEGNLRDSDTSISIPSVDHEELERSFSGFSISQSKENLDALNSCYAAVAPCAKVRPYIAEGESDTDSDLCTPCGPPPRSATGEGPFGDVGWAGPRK
Type: cell-based
Protocol: The potency of Kv7 potentiators was determined using the SyncroPatch 384 (Nanion) high throughput electrophysiology platform.
CHO cells stably expressing either human Kv7.2, Kv7.4 or Kv7.5/7.3 under a constitutive CMV promoter were used for these studies. Cells were maintained in F12 Hams+1 mM L-glutamine (Hyclone) supplemented with 10% FBS (Sigma), 0.3×NEAA (Non-essential Gamino-acids) and 400 ug/ml G418 at 37° C. in 5% CO2. Cells were cultured in T-225 flasks (Nunc) for 2-3 days to reach 85-95% confluence prior to electrophysiological recording.
Earle's balanced salt solution (in mM): 135 NaCl, 5.4 KCl, 5 Glucose, 2 CaCl2), 1 MgCl2, 5 HEPES, pH 7.4. Seal enhancer solution (in mM): 90 NaCl, 3 KCl, 35 CaCl2), 10 MgCl2, 10 HEPES, pH 7.4. Extracellular recording solution (in mM): 71 NaCl, 70 NMDG, 13 KCl. 5 Glucose, 2 CaCl2, 1 MgCl2, 10 HEPES, pH 7.4. Intracellular recording solution (in mM): 130 KF, 20 KCl, 4 EGTA, 10 HEPES, 2 EDTA, 0.01 Escin, pH 7.2.
Cells were harvested for electrophysiological recording upon reaching appropriate confluence. Cells were first washed in DPBS (Hyclone, Cat #SH30028.03) and then 2 ml of Accutase (MP Biomedicals #1000449) was added at 28° C. until ~90% of cells were suspended. F12 HAM's media+1 mM L-glutamine (Hyclone, SH30026.02) was then added to the flask to dilute the accutase. Cells were then triturated until a single cell suspension was achieved, a cell count was performed, and cells were centrifuged for 2 min. at 1,000 rpm. Media was then aspirated, and cells were resuspended in Earle's balanced salt solution to a concentration of 0.75×10^6 cells/ml and allowed to recover for 25 min at 10° C.
At the beginning of each assay, 20 μl of cell suspension was dispensed into each well of a multi-hole 384-well SyncroPatch chip by the onboard pipettor. Cell sealing was initiated, and seal enhancer solution was added to facilitate seal formation. Upon completion of sealing, cells were washed 3 times with extracellular recording solution and the assay voltage protocol was started. Human Kv7.2, Kv7.4 or Kv7.5/7.3 channels were evaluated using a voltage protocol in which cells were voltage-clamped at a holding potential of −60 mV. Potassium currents were continuously activated with a series of three voltage steps to −30 mV for 3 seconds, 40 mV for 1 second and −90 mV for 4 seconds with 12 seconds between successive voltage sweeps. Potassium currents were measured from the −90 mV repolarizing step. Baseline current was assessed for 3.5 minutes prior to the addition of 5.6 μM zinc pyrithione (1 μM for Kv7.4). Kv7.2, Kv7.4 or Kv7.5/7.3 current in the presence of zinc pyrithione was acquired over five minutes to allow channels to reach steady state activity prior to addition of test agents. Channel activity was monitored for three minutes preceding the addition of 30 μM ML-213 (3 minutes) to achieve maximum activation. 150 mM TEA with 10 μM XE-991 was applied for 2 minutes to measure the leak current during maximum inhibition of Kv7.2, Kv7.4 or Kv7.5/7.3 channels.
Data were collected on the SyncroPatch platform using PatchControl software (Nanion) and processed and analyzed using DataControl Software (Nanion). Percent activation was calculated from potassium current as follows: The average current for the 5 sweeps in the presence of zinc pyrithione immediately preceding test agent addition was taken as the ‘control’ data. Likewise, the average potassium current in the presence of test agents 5 sweeps immediately preceding addition of 30 μM ML-213 was determined for ‘drug’ data. The average potassium current 5 sweeps immediately prior to addition of 150 mM TEA+10 μM XE-991 was determined for ‘max activation’ data while average currents from 5 sweeps immediately following addition of TEA was determined for ‘max inhibition’ data. Percent activation for each of the 384-wells of a sealchip was calculated as ((‘drug’−‘max inhibition’)/(‘max activation’−‘max inhibition’))*100 with Pipeline Pilot (Accelrys). […]
With `O=C(NC[C@]1(c2cccc(Cl)c2)CCO1)[C@H]1C[C@@H]1c1ccccc1` [Example 39, (1S,2S)-N-[[(2R)-2-(3-chlorophenyl)oxetan-2-yl]methyl]-2-phenyl-cyclopropanecarboxamide] the EC50 was 730 nM.
Work on `O=C(NC[C@@]1(c2cccc(Cl)c2)CCO1)[C@H]1C[C@@H]1c1ccccc1` [Example 40, (1S,2S)-N-[[(2S)-2-(3-chlorophenyl)oxetan-2-yl]methyl]-2-phenyl-cyclopropanecarboxamide] yielded an EC50 of 110 nM.
For `COC(C)(CNC(=O)C1CC1c1ccccc1F)c1cccc(Cl)c1` (stereo not drawn) [Example 43, N-[2-(3-chlorophenyl)-2-methoxy-propyl]-2-(2-fluorophenyl)cyclopropanecarbox-amide], the EC50 was 110 nM.
In the case of `COC(C)(CNC(=O)C1CC1c1ccc(Cl)cc1)c1cccc(Cl)c1` (stereo not drawn) [Example 44, 2-(4-chlorophenyl)-N-[2-(3-chlorophenyl)-2-methoxy-propyl]cyclopropanecarboxamide], the EC50 is reported as 900 nM.
`COC(C)(CNC(=O)/C=C/c1ccccc1F)c1cccc(Cl)c1` (stereo not drawn) [Example 47, (E)-N-[2-(3-chlorophenyl)-2-methoxy-propyl]-3-(2-fluorophenyl)prop-2-enamide] gave an EC50 of 7510 nM.
For `N#Cc1cccc([C@]2(CNC(=O)[C@H]3C[C@@H]3c3ccccc3)CCO2)c1` [Example 49, (1S,2S)-N-[[(2S)-2-(3-cyanophenyl)oxetan-2-yl]methyl]-2-phenyl-cyclopropanecarboxamide], the EC50 was 40 nM.
In the case of `COc1cccc(NC(=O)NCC2(c3cccc(Cl)c3)CCO2)c1` (stereo not drawn) [Example 50, 1-[[2-(3-chlorophenyl)oxetan-2-yl]methyl]-3-(3-methoxyphenyl)urea], the EC50 is reported as 1650 nM.
`COC(C)(CNC(=O)CCC1CCCC1)c1cccc(Cl)c1` (stereo not drawn) [Example 53, N-[2-(3-chlorophenyl)-2-methoxy-propyl]-3-cyclopentyl-propanamide] showed an EC50 of 890 nM.
In the case of `N#Cc1cccc([C@@]2(CNC(=O)[C@H]3C[C@@H]3c3ccccc3)CCO2)c1` [Example 55, (1S,2S)-N-[[(2R)-2-(3-cyanophenyl)oxetan-2-yl]methyl]-2-phenyl-cyclopropanecarboxamide], the EC50 is reported as 790 nM.
Compound `O=C(CC1CCCCC1)N[C@H]1C[C@H](c2cccc(Cl)c2)C1` [Example 56, N-[3-(1r,3r)-(3-chlorophenyl)cyclobutyl]-2-cyclohexyl-acetamide] has an EC50 of 3190 nM.
`O=C(CC1CCCCC1)NCC1(c2cccc(Cl)c2)CCO1` (stereo not drawn) [Example 57, N-[[2-(3-chlorophenyl)oxetan-2-yl]methyl]-2-cyclohexyl-acetamide] was tested, and the EC50 was 430 nM.
In the case of `O=C(NCC1(c2cccc(Cl)c2)CCO1)Nc1cccc(Cl)c1` (stereo not drawn) [Example 58], the EC50 is reported as 810 nM.
Work on `O=C(NCC1CCCC1)NCC1(c2cccc(Cl)c2)CCO1` (stereo not drawn) [Example 59, 1-[[2-(3-chlorophenyl)oxetan-2-yl]methyl]-3-(cyclopentylmethyl)urea] yielded an EC50 of 320 nM.
Compound `CC(C)(C)CNC(=O)NCC1(c2cccc(Cl)c2)CCO1` (stereo not drawn) [Example 60, 1-[[2-(3-chlorophenyl)oxetan-2-yl]methyl]-3-(2,2-dimethylpropyl)urea] has an EC50 of 1050 nM.
`O=C(NCC1(c2cccc(Cl)c2)CCO1)C1CCCCC1` (stereo not drawn) [Example 61] was tested, and the EC50 was 7600 nM.
`O=C(NCc1cccc(Cl)c1)NCC1(c2cccc(Cl)c2)CCO1` (stereo not drawn) [Example 62, 1-[(3-chlorophenyl)methyl]-3-[[2-(3-chlorophenyl)oxetan-2-yl]methyl]urea] gave an EC50 of 420 nM.
With `O=C(CC12CC(C1)C2)NCC1(c2cccc(Cl)c2)CCO1` (stereo not drawn) [Example 63] the EC50 was 5190 nM.
Compound `O=C(NCC1(c2cccc(Cl)c2)CCO1)C1CC2(CCC2)C1` (stereo not drawn) [Example 64, N-[[2-(3-chlorophenyl)oxetan-2-yl]methyl]spiro[3.3]heptane-2-carboxamide] has an EC50 of 2750 nM.
`O=C(CC1CCC(F)(F)CC1)NCC1(c2cccc(Cl)c2)CCO1` (stereo not drawn) [Example 65, N-[[2-(3-chlorophenyl)oxetan-2-yl]methyl]-2-(4,4-difluorocyclohexyl)acetamide] gave an EC50 of 1920 nM.
Compound `O=C1CCC(CNC(=O)[C@H]2C[C@@H]2c2ccccc2)(c2cccc(Cl)c2)O1` (stereo partly drawn) [Example 66, (1S,2S)-N-[[2-(3-chlorophenyl)-5-oxo-tetrahydrofuran-2-yl]methyl]-2-phenyl-cyclopropanecarboxamide] has an EC50 of 80 nM.
In the case of `O=C(NCC1(c2ccnc(OC(F)F)c2)CCO1)[C@H]1C[C@@H]1c1ccccc1` (stereo partly drawn) [Example 67, (1S,2S)-N-[[2-[2-(difluoromethoxy)-4-pyridyl]oxetan-2-yl]methyl]-2-phenyl-cyclopropanecarboxamide], the EC50 is reported as 410 nM.
In the case of `O=C(NCC1(c2cccc(Cl)c2)COC1)[C@H]1C[C@@H]1c1ccccc1` [Example 68, (1S,2S)—N-[[3-(3-chlorophenyl)oxetan-3-yl]methyl]-2-phenyl-cyclopropanecarboxamide], the EC50 is reported as 200 nM.
In the case of `CO[C@@](C)(CNC(=O)CCC(O)C(C)(C)C)c1cccc(Cl)c1` (stereo partly drawn) [Example 69, N-[(2R)-2-(3-chlorophenyl)-2-methoxy-propyl]-4-hydroxy-5,5-dimethyl-hexanamide], the EC50 is reported as 6290 nM.
For `N#CCO[C@H](CNC(=O)[C@H]1C[C@@H]1c1ccccc1)c1cccc(Cl)c1` [Example 70, (1S,2S)—N-[(2S)-2-(3-chlorophenyl)-2-(cyanomethoxy)ethyl]-2-phenyl-cyclopropanecarboxamide], the EC50 was 650 nM.
Work on `O=C(NCC1CCCC1)NCC1(c2cccc(Cl)c2)COC1` [Example 72, 1-[[3-(3-chlorophenyl)oxetan-3-yl]methyl]-3-(cyclopentylmethyl)urea] yielded an EC50 of 870 nM.
With `N#CCOC(CNC(=O)CC1CCCC1)c1cccc(Cl)c1` (stereo not drawn) [Example 73, N-[2-(3-chlorophenyl)-2-(cyanomethoxy)ethyl]-2-cyclopentyl-acetamide] the EC50 was 2000 nM.
`O=C(NCC(CO)c1cccc(Cl)c1)[C@H]1C[C@@H]1c1ccccc1` (stereo partly drawn) [Example 74, (1S,2S)—N-[2-(3-chlorophenyl)-3-hydroxy-propyl]-2-phenyl-cyclopropanecarboxamide] showed an EC50 of 3100 nM.
In the case of `O=C(NCC1CCCC1)NCC1(c2cccc(Cl)c2)CCC(=O)O1` (stereo not drawn) [Example 75, 1-[[2-(3-chlorophenyl)-5-oxo-tetrahydrofuran-2-yl]methyl]-3-(cyclopentylmethyl)urea], the EC50 is reported as 290 nM.
Work on `O=C(NCC1(c2cccc(Cl)n2)CCO1)[C@H]1C[C@@H]1c1ccccc1` (stereo partly drawn) [Example 76, (1S,2S)—N-[[2-(6-chloro-2-pyridyl)oxetan-2-yl]methyl]-2-phenyl-cyclopropanecarboxamide] yielded an EC50 of 1740 nM.
Work on `O=C(NC/C(=C/CO)c1cccc(Cl)c1)[C@H]1C[C@@H]1c1ccccc1` [Example 77, (1S,2S)—N-[(E)-2-(3-chlorophenyl)-4-hydroxy-but-2-enyl]-2-phenyl-cyclopropanecarboxamide] yielded an EC50 of 340 nM.
For `O=C(NC/C(=C/CO)c1cccc(Cl)c1)NCC1CCCC1` [Example 78, 1-[(E)-2-(3-chlorophenyl)-4-hydroxy-but-2-enyl]-3-(cyclopentylmethyl)urea], the EC50 was 6790 nM.
With `CO[C@@](C)(CNC(=O)C1CC12CCCCC2)c1cccc(Cl)c1` (stereo partly drawn) [Example 82, N-[(2R)-2-(3-chlorophenyl)-2-methoxy-propyl]spiro[2.5]octane-2-carboxamide] the EC50 was 290 nM.
With `CO[C@@](C)(CNC(=O)C1CC12CCC(F)(F)CC2)c1cccc(Cl)c1` (stereo partly drawn) [Example 83, N-[(2R)-2-(3-chlorophenyl)-2-methoxy-propyl]-6,6-difluoro-spiro[2.5]octane-2-carboxamide] the EC50 was 380 nM.

Source: US20260308149A1, “NOVEL CARBOXAMIDE DERIVATIVES” (ANGELINI PHARMA S.P.A., priority 2023, published 2026)
